Reference: patent publication US20130303576A1, “ENZYME INHIBITORS” (priority 2009, published 2013)

Legend:
U937 cells = experiment: U937 cell inhibition assay (WST-1 cell viability); format: cell-based; conditions: for times more potent in the monocytic cell line (U937) than the non-monocytic cell line (Hut78): U937 versus Hut78; for potency in the U937 cellular assay compared with the parent compound: versus parent compound A
Description: (§1) Cancer cell lines (U937 and HUT) growing in log phase were harvested and seeded at 1000-2000 cells/well (100 μl final volume) into 96-well tissue culture plates. Following 24 h of growth cells were treated with Compound. Plates were then re-incubated for a further 72-98 h before a WST-1 cell viability assay was conducted according to the suppliers (Roche Applied Science) instructions.
(§2) Data were expressed as a percentage inhibition of the control, measured in the absence of inhibitor, as follows:
(§3) % inhibition=100−[(S^i/S^o)×100]
(§4) where S^i is the signal in the presence of inhibitor and S^o is the signal in the presence of DMSO.
(§5) Dose response curves were generated from 8 concentrations (top final concentration 10 μM, with 3-fold dilutions), using 6 replicates.
(§6) IC50 values were determined by non-linear regression analysis, after fitting the results to the equation for sigmoidal dose response with variable slope (% activity against log concentration of Compound), using Graphpad Prism software.
(§7) IC50 results were allocated to one of 3 ranges as follows: […]

HUT78 cells = experiment: HUT cell inhibition assay (WST-1 cell viability); format: cell-based; conditions: read-out: Inhibition of proliferation in HUT78 cells (IC50 nM)
Description: as §1, §2, §3, §4, §5, §6, §7

Structure (SMILES) | times more potent in the monocytic cell line (U937) than the non-monocytic cell line (Hut78) (U937 cells) [times] | potency in the U937 cellular assay compared with the parent compound (U937 cells) | IC50 (HUT78 cells) [nM]
CC(C)CC(C)(NCc1ccc(CCC(=O)NO)cc1)C(=O)OC1CCCC1 (racemic) [Example 16, Cyclopentyl N-{4-[3-(hydroxyamino)-3-oxopropyl]benzyl}-2-methyl-D,L-leucinate] | 30 | significantly more potent | 0.04
O=C(CCc1ccc(CNC2(C(=O)OC3CCCC3)CCCC2)cc1)NO [Example 14, Cyclopentyl 1-({4-[3-hydroxyamino)-3-oxopropyl]benzyl}amino) cyclopentanecarboxylate] | 30 | significantly more potent | –
